Experimental data as given in patent US11040981B2, “Pyrrolotriazine compounds and methods of inhibiting TAM kinases” (Syros Pharmaceuticals, Inc., priority 2017, dated 2021).

Experiments:
TYRO3 = target: T1, TYRO3 (Homo sapiens, UniProt Q06418); test: TR-FRET kinase activity assay, TYRO3; assay type: biochemical; details: ATP at Km, 60 minutes
T1 sequence (Q06418 41-890): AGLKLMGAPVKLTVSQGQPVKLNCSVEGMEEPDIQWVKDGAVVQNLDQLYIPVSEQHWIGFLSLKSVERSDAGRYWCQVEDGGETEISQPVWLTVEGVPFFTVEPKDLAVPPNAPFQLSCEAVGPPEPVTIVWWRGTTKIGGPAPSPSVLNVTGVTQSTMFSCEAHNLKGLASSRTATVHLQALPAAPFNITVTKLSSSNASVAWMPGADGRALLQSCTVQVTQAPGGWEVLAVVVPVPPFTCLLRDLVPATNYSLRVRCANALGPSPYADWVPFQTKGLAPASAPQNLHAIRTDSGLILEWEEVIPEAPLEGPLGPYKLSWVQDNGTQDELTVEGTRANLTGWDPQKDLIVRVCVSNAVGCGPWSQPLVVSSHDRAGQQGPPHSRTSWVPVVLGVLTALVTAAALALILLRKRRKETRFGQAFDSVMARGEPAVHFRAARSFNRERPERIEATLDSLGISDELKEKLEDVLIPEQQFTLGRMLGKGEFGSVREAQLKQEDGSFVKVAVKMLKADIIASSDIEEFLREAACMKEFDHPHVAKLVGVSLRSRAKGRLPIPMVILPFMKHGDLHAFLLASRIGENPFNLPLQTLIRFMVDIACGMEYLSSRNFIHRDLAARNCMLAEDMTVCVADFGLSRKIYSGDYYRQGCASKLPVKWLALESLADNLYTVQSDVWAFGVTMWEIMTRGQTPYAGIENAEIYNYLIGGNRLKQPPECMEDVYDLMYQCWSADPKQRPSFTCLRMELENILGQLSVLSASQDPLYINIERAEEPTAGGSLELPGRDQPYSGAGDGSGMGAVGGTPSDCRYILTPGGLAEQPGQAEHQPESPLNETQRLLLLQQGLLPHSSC
In short: (§1)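 Recombinant human kinases, fluorescent peptide substrate, ATP at Km; 1 h RT, pH 7.5. EDTA-quenched, Eu antibody added, TR-FRET read; IC50 determined.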

AXL = target: T2, AXL (Homo sapiens, UniProt P30530); test: TR-FRET kinase activity assay, AXL; assay type: biochemical; details: ATP at Km, 60 minutes
T2 sequence (P30530 26-894): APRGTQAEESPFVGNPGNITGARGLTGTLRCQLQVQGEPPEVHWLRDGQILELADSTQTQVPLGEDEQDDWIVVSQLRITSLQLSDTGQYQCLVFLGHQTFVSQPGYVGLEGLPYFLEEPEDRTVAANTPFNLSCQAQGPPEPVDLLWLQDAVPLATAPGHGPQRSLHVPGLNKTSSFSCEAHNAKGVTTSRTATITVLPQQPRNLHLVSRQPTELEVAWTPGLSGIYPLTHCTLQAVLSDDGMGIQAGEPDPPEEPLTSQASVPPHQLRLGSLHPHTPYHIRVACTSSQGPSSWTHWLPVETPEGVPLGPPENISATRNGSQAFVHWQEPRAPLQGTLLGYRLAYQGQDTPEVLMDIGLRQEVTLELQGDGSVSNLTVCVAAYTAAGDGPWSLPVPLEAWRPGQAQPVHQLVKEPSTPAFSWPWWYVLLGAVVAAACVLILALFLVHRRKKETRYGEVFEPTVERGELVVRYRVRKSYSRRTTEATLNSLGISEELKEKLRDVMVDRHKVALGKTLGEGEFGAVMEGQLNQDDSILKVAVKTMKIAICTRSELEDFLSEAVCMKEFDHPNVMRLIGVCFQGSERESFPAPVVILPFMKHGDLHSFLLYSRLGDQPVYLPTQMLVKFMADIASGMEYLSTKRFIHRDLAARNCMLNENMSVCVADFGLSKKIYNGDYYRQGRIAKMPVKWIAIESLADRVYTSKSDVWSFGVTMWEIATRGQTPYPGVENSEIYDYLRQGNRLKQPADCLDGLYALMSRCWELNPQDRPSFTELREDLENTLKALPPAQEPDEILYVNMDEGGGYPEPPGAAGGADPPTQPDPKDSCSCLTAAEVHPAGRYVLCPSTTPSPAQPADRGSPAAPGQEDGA
In short: as §1

IC50 (TYRO3) | IC50 (AXL) | SMILES
1000 to 10000 nM | 1000 to 10000 nM | CC(CC1COC1)Nc1ncc2c(-c3cnn(C4COC4)c3)cc([C@H]3CC[C@H](O)CC3)n2n1 (mixture of isomers) [Compound 447]
≤ 100 nM | ≤ 100 nM | CC[C@H](C)Nc1ncc2c(-c3ccc(CN4CCN(C)CC4)cc3)cc([C@H]3CC[C@](C)(O)CC3)n2n1 (relative stereo) [Compound 132, (trans)-4-(2-((S)-sec-butylamino)-5-(4-((4-methylpiperazin-1-yl)methyl)phenyl)pyrrolo[2,1-f][1,2,4]triazin-7-yl)-1-methylcyclohexanol]
≤ 100 nM | ≤ 100 nM | COC[C@H](C)Nc1ncc2c(-c3cnn(C4COC4)c3)cc([C@H]3CC[C@](C)(O)CC3)n2n1 (single isomer, unassigned) [Compound 452]
≤ 100 nM | ≤ 100 nM | COC[C@H](C)Nc1ncc2c(-c3cnn(C4COC4)c3)cc([C@H]3CC[C@@](C)(O)CC3)n2n1 (single isomer, unassigned) [Compound 453]
≤ 100 nM | ≤ 100 nM | CC[C@H](C)Nc1ncc2c(-c3ccc(CN4CCN(C)CC4)cc3)cc(C3CCC(C)(O)CC3)n2n1 (stereo in doubt) [Compound 131, (cis)-4-(2-((S)-sec-butylamino)-5-(4-((4-methylpiperazin-1-yl)methyl)phenyl)pyrrolo[2,1-f][1,2,4]triazin-7-yl)-1-methylcyclohexanol]
100 to 1000 nM | 100 to 1000 nM | CCC1(Nc2ncc3c(-c4ccc(CN5CCN(C)CC5)cc4)cc([C@H]4CC[C@H](O)CC4)n3n2)CCC1 [Compound 126]
≤ 100 nM | ≤ 100 nM | CCCCC[C@H](C)Nc1ncc2c([C@H]3CC[C@@H](C(=O)N4CCN(C)CC4)CC3)cc([C@H]3CC[C@H](O)CC3)n2n1 [Compound 127]
≤ 100 nM | ≤ 100 nM | CC[C@H](C)Nc1ncc2c(C3=CCOCC3)cc([C@H]3CC[C@H](O)CC3)n2n1 [Compound 128]
≤ 100 nM | 100 to 1000 nM | CC[C@H](C)Nc1ncc2c(C3CCOCC3)cc([C@H]3CC[C@H](O)CC3)n2n1 [Compound 129, (trans)-4-(2-((S)-sec-butylamino)-5-(tetrahydro-2H-pyran-4-yl)pyrrolo[2,1-f][1,2,4]triazin-7-yl)cyclohexanol]
≤ 100 nM | ≤ 100 nM | COC[C@H](C)Nc1ncc2c(-c3ccc(CC(=O)O)cc3)cc([C@H]3CC[C@H](O)CC3)n2n1 [Compound 133]
≤ 100 nM | ≤ 100 nM | COC[C@H](C)Nc1ncc2c(-c3ccc(-c4nn[nH]n4)cc3)cc([C@H]3CC[C@H](O)CC3)n2n1 [Compound 134]
≤ 100 nM | ≤ 100 nM | COC[C@H](C)Nc1ncc2c(-c3ccnc(N4CCOCC4=O)c3)cc([C@H]3CC[C@H](O)CC3)n2n1 [Compound 423]
≤ 100 nM | ≤ 100 nM | CNS(=O)(=O)c1ccc(-c2cc([C@H]3CC[C@H](O)CC3)n3nc(N[C@@H](C)COC(F)F)ncc23)cn1 [Compound 424]
≤ 100 nM | ≤ 100 nM | COC[C@H](C)Nc1ncc2c(C3=CCN(C(=O)OC(C)(C)C)CC3)cc([C@H]3CC[C@H](O)CC3)n2n1 [Compound 425]
≤ 100 nM | ≤ 100 nM | COC[C@H](C)Nc1ncc2c(-c3ccnc(N4CC5(COC5)C4)c3)cc([C@H]3CC[C@H](O)CC3)n2n1 [Compound 426]
≤ 100 nM | ≤ 100 nM | COC[C@H](C)Nc1ncc2c(-c3ccnc(N4CCC5(CC4)COC5)c3)cc([C@H]3CC[C@H](O)CC3)n2n1 [Compound 427]
≤ 100 nM | ≤ 100 nM | COC[C@H](C)Nc1ncc2c(-c3ccnc(N4CCC5(CCO5)CC4)c3)cc([C@H]3CC[C@H](O)CC3)n2n1 [Compound 430]

IC50 (TYRO3) | IC50 (AXL) | SMILES
≤ 100 nM | ≤ 100 nM | COC[C@H](C)Nc1ncc2c(-c3ccnc(NC4CCOCC4)c3)cc([C@H]3CC[C@H](O)CC3)n2n1 [Compound 431]
≤ 100 nM | ≤ 100 nM | CCC(=O)N1CCN(c2cc(-c3cc([C@H]4CC[C@H](O)CC4)n4nc(N[C@@H](C)COC)ncc34)ccn2)CC1 [Compound 432]
≤ 100 nM | ≤ 100 nM | COC[C@H](C)Nc1ncc2c(-c3ccnc(N4CCNCC4)c3)cc([C@H]3CC[C@H](O)CC3)n2n1 [Compound 434]
≤ 100 nM | ≤ 100 nM | C[C@@H](COC(F)F)Nc1ncc2c(-c3cnn(CCS(C)(=O)=O)c3)cc([C@H]3CC[C@H](O)CC3)n2n1 [Compound 436]
≤ 100 nM | ≤ 100 nM | C[C@@H](COC(F)F)Nc1ncc2c(-c3cnn(CCC#N)c3)cc([C@H]3CC[C@H](O)CC3)n2n1 [Compound 437]
≤ 100 nM | ≤ 100 nM | COC[C@H](C)Nc1ncc2c(-c3ccnc(N4CCOC4=O)c3)cc([C@H]3CC[C@H](O)CC3)n2n1 [Compound 438]
≤ 100 nM | ≤ 100 nM | COC[C@H](C)Nc1ncc2c(-c3cnn(CC4CCO4)c3)cc([C@H]3CC[C@H](O)CC3)n2n1 (some centres unmarked) [Compound 439]
≤ 100 nM | ≤ 100 nM | COC[C@H](C)Nc1ncc2c(-c3cnn(C(C)(C)c4nnc(C)o4)c3)cc([C@H]3CC[C@H](O)CC3)n2n1 [Compound 440]
≤ 100 nM | ≤ 100 nM | COC[C@H](C)Nc1ncc2c(-c3csc(C(=O)N4CCOCC4)c3)cc([C@H]3CC[C@H](O)CC3)n2n1 [Compound 444]
≤ 100 nM | ≤ 100 nM | COC[C@H](C)Nc1ncc2c(-c3ccnc(N4C[C@H]5CC[C@@H](C4)O5)c3)cc([C@H]3CC[C@H](O)CC3)n2n1 [Compound 445]
≤ 100 nM | ≤ 100 nM | C[C@@H](CC(F)(F)F)Nc1ncc2c([C@H]3CC[C@@H](C(=O)N4CCOCC4)CC3)cc([C@H]3CC[C@H](O)CC3)n2n1 [Compound 446]
≤ 100 nM | 100 to 1000 nM | COC[C@H](C)Nc1ncc2c(C#CC(C)(C)C(=O)N3CCOCC3)cc([C@H]3CC[C@H](O)CC3)n2n1 [Compound 449]
≤ 100 nM | ≤ 100 nM | COC[C@H](C)Nc1ncc2c(-c3cnn(C(C)(C)C(=O)N4CCC(C)(O)CC4)c3)cc([C@H]3CC[C@H](O)CC3)n2n1 [Compound 450]
≤ 100 nM | ≤ 100 nM | COC[C@H](C)Nc1ncc2c(-c3cnn(C(C)(C)C(=O)N4CCC(C)(C#N)CC4)c3)cc([C@H]3CC[C@H](O)CC3)n2n1 [Compound 451]
≤ 100 nM | ≤ 100 nM | COC[C@H](C)Nc1ncc2c(-c3cnn(C(C)(C)CN4CCOCC4)c3)cc([C@H]3CC[C@H](O)CC3)n2n1 [Compound 459]
≤ 100 nM | ≤ 100 nM | COC[C@H](C)Nc1ncc2c(-c3ccc(C(C)(C)C(=O)N4CCOCC4)s3)cc([C@H]3CC[C@H](O)CC3)n2n1 [Compound 460]

SMILES | IC50 (TYRO3) | IC50 (AXL)
CC[C@H](C)Nc1ncc2c(C3=CCNCC3)cc([C@H]3CC[C@H](O)CC3)n2n1 [Compound 130] | ≤ 100 nM | ≤ 100 nM
C[C@@H](CC(F)(F)F)Nc1ncc2c(C3=CCNCC3)cc([C@H]3CC[C@H](O)CC3)n2n1 [Compound 442] | ≤ 100 nM | ≤ 100 nM
COC[C@H](C)Nc1ncc2c(C3=CCNCC3)cc([C@H]3CC[C@H](O)CC3)n2n1 [Compound 443] | ≤ 100 nM | ≤ 100 nM
C[C@H](CC(F)(F)F)Nc1ncc2c(C3=C[C@H]4CC[C@@H](C3)N4C(=O)OC(C)(C)C)cc([C@H]3CC[C@H](O)CC3)n2n1 [Compound 456] | ≤ 100 nM | ≤ 100 nM
